How the values were obtained:
Kasumi-1 = assay: Cell growth inhibition test, Kasumi-1; type: cell-based; details: Homo sapiens, 240 h; Kasumi-1, culture time 10 days; read-out: Cell growth inhibitory activity (GI50, nM) Kasumi-1
Description: (§1) In order to confirm the inhibitory effects of the synthetic compounds against the growth of blood cancer cell lines, evaluation was performed against KARPAS 422, RPMI 8226, KMS-11, JeKo-1, MV-4-11, Mino, Pfeiffer, SU-DHL-4, and RS4; 11 cell lines. A test for the Pfeiffer and SU-DHL-4 cell lines was performed by KYinno Co., Ltd., a test for the RS4; 11 cell line was performed by Shanghai Chempartner Co., Ltd., and a test for the Kasumi-1, MV-4-11, MM.1S, KMS-11, JeKo-1, Mino (ATCC), RPMI 8226 (KCLB), and KARPAS 422 (ECACC) cell lines was performed after purchase.
(§2) DMSO at a final concentration of 0.1% or less or a DMSO solution of each of the synthetic compounds was added to media to have the concentration and treatment time described in Table 5 below, and cells were cultured at 37° C. under 5% CO2. Each type of the cultured cells was seeded in 6-well plates or 48-96 well plates, and subculture or medium replacement was performed every 3 to 4 days. Next, the cells were subcultured for a total of 7 to 14 days, and then seeded in 96-well plates. 3 to 5 days before the measurement of the effect, the cells were seeded in 96-well plates, and then the absorbance (Tz) on the day of seeding was measured. The absorbance after the reaction was measured by the plate reader device Synergy NeoAlpha (Biotek) using Cell-Titer-Glo Cell Viability Assay (Promega, G7573) according to the attached manual. Based on the absorbance (Tz) measured on the seeding day and the absorbance of each of the DMSO-treated group (C) and the sample-added group (Ti) measured on the day of effect determination, the percentage of cell proliferation inhibition was calculated according to the following Equation 1. [(Ti−Tz)/(C−Tz)]×100 for concentrations for which Ti≥Tz […] for concentrations for which Ti<Tz. [Equation 1]

[1] = Mouse pharmacokinetics, oral single dose; type: in vivo; details: male, ICR, mouse, plasma, po, 30 mg/kg, mice (ICR, male), oral single dose 30 mg/kg
Description: Pharmacokinetics of the synthetic compounds as EZH2 inhibitors in mice (ICR, 8-week-old, male) were tested.
The oral administration group was maintained in a fasting state from the day before the test to 4 hours after administration of the test compound. On the day of administration of the test compound, the weight of each animal was measured and each synthetic compound was formulated using a selected solvent based on 30 mg/kg (10 mL/kg). Each test compound was administered orally in a single dose, a certain amount of the blood was taken at a predetermined time, plasma was isolated therefrom, and the concentration of each test compound in the plasma was analyzed using LC-MS/MS (Waters UPLC H-Class/Xevo TQ; Waters, USA). Pharmacokinetic coefficients were calculated by a linear-log trapezoidal summation formula using a non-compartment analysis of the Phoenix™ WinNonlin (Certara, USA) program through the plasma concentration curve over time.

[2] = Metabolic stability in human liver microsomes; type: in vitro ADME; details: 5 μM compound, 1 mg/mL human liver microsomes, 37° C., NADPH regenerating system
RPMI8226 = assay: Cell growth inhibition test, RPMI8226; type: cell-based; details: Homo sapiens, RPMI-8226, 168 h; RPMI8226, culture time 7 days; read-out: Cell growth inhibitory activity (GI50, nM) RPMI8226
Description: as §1, §2

[3] = tested on: Pfeiffer (EZH2 A677G mutation); assay: Cell growth inhibition test, Pfeiffer; type: cell-based; details: Homo sapiens, read-out: Cell growth inhibitory activity (GI50, nM) Pfeiffer (EZH2 A677G mutation)
Description: as §2, with “Each” for “DMSO at a final concentration of 0.1% or less or a DMSO solution of each of the synthetic compounds was added to media to have the concentration and treatment time described in Table 5 below, and cells were cultured at 37° C. under 5% CO2. Each”

[4] = Metabolic stability in rat liver microsomes; type: in vitro ADME; details: 5 μM compound, 1 mg/mL rat liver microsomes, 37° C., NADPH regenerating system
Description: (§3) In order to confirm the metabolic stability of the synthetic compounds in the liver, 5 μM test compound and 1 mg/mL human, dog, rat or mouse liver microsomes were allowed to react with each other at 37° C. in the presence of the NADPH regenerating system for 1 hour. After 1 hour, the reaction was terminated and the supernatant obtained by centrifugation was analyzed by HPLC. With the peak value obtained as the analysis result, the residual amount (%) was calculated using the following equation through the peak value of the test compound after 1 hour of the reaction versus the peak value of the test compound at 0 min. Residual amount (%)=(peak value of test compound after 1 hour of reaction/peak value of test compound at 0 min)×100

RS4;11 = assay: Cell growth inhibition test, RS4;11; type: cell-based; details: Homo sapiens, read-out: Cell growth inhibitory activity (GI50, nM) RS4;11
Description: as §1, §2

[5] = Metabolic stability in dog liver microsomes; type: in vitro ADME; details: 5 μM compound, 1 mg/mL dog liver microsomes, 37° C., NADPH regenerating system
Description: as §3

MV4-11 = assay: Cell growth inhibition test, MV4-11; type: cell-based; details: Homo sapiens, 240 h; MV4-11, culture time 10 days; read-out: Cell growth inhibitory activity (GI50, nM) MV4-11
Description: as §1, §2

JeKo-1 = assay: Cell growth inhibition test, JeKo-1; type: cell-based; details: Homo sapiens, 240 h; JeKo-1, culture time 10 days; read-out: Cell growth inhibitory activity (GI50, nM) JeKo-1
Description: as §1, §2

Mino = assay: Cell growth inhibition test, Mino; type: cell-based; details: Homo sapiens, 336 h, culture time 14 days, read-out: Cell growth inhibitory activity (GI50, nM) Mino
Description: as §1, §2

KMS-11 = assay: Cell growth inhibition test, KMS-11; type: cell-based; details: Homo sapiens, 240 h; KMS-11, culture time 10 days; read-out: Cell growth inhibitory activity (GI50, nM) KMS-11
Description: as §1, §2

[6] = Metabolic stability in mouse liver microsomes; type: in vitro ADME; details: 5 μM compound, 1 mg/mL mouse liver microsomes, 37° C., NADPH regenerating system
MM.1S = assay: Cell growth inhibition test, MM.1S; type: cell-based; details: Homo sapiens, MM1.S, 264 h, culture time 11 days, read-out: Cell growth inhibitory activity (GI50, nM) MM.1S
Description: as §1, §2

SU-DHL-4 = assay: Cell growth inhibition test, SU-DHL-4; type: cell-based; details: Homo sapiens, read-out: Cell growth inhibitory activity (GI50, nM) SU-DHL-4
Description: as §1, §2

[7] = tested on: KARPAS-422 (EZH2 Y641N mutation); assay: Cell growth inhibition test, KARPAS-422; type: cell-based; details: Homo sapiens, KARPAS-422, 168 h, KARPAS-422, culture time 7 days; read-out: Cell growth inhibitory activity (GI50, nM) KARPAS-422 (EZH2 Y641N mutation)

AUC ([1]; read-out: Area under oral curve (AUC)): 3420 to 5000 ng·h/mL
half-life ([1]; read-out: Half life T1/2 (converted)): 1 h
Residual amount (%) of test compound after 1 hour of reaction, Human [2]: 65%
GI50 (RPMI8226): 7.8 nM
Residual amount (%) of test compound after 1 hour of reaction, Rat [4]: 81%
GI50 (RS4;11): 62 nM
Residual amount (%) of test compound after 1 hour of reaction, Dog [5]: 83%
GI50 (MV4-11): 6.1 nM
Residual amount (%) of test compound after 1 hour of reaction, Mouse [6]: 50%
GI50 (MM.1S): 2.3 nM
GI50 (SU-DHL-4): 21 nM
GI50 [7]: 1.3 to 15 nM
SMILES: Cc1cc(C)c(CNC(=O)c2cc(Cl)c3c(c2C)O[C@@](C)([C@H]2CC[C@H](N(C)C)CC2)O3)c(=O)[nH]1 [Control B]
GI50 (Kasumi-1): 324 nM
GI50 [3]: 0.57 nM
GI50 (JeKo-1): 71 nM
GI50 (Mino): 2.5 nM
GI50 (KMS-11): 25 nM

— US12344618B2, “Heterotricyclic derivative compound and use of same” (HANMI PHARMACEUTICAL CO., LTD., priority 2019, dated 2025)
